Key:
[1] = test system: sheep allergic to Ascaris suum; assay: Sheep asthma model (Ascaris suum antigen challenge); assay type: in vivo
Method: Briefly, transpulmonary pressure, pulmonary resistance (RL), specific lung resistance (SRL airway hyperreactivity, airway responsiveness, are determined.
Venous blood samples (-5 ml) are obtained from a peripheral leg vein or the jugular vein for pharmacokinetic data. Measurement of Airway Mechanics: The unsedated sheep are restrained in a cart in the prone position with their heads immobilized. After topical anesthesia of the nasal passages with 2% lidocaine solution, a balloon catheter is advanced through one nostril into the lower esophagus. The animals are […] with a cuffed endotracheal tube through the other nostril using a flexible fiberoptic bronchoscope as a guide. (The cuff of the endotracheal tube is inflated only for the measurement of airway mechanics and during aerosol challenges to prevent undue discomfort. This procedure has no effect on airway mechanics). Pleural pressure is estimated with the esophageal balloon catheter (filled with one ml of air) which is positioned 5-10 cm from the gastroesophageal junction. In this position the end expiratory pleural pressure ranges between -2 and -5 cm H20. […] Lateral pressure in the trachea is measured with a sidehole catheter (inner dimension, 2.5 mm) advanced through and positioned distal to the tip of the endotracheal tube. Transpulmonary pressure, the difference between tracheal and pleural pressure, is measured with a differential pressure transducer catheter system. […] The signals of flow and transpulmonary pressure is recorded on an oscilloscope recorder which is linked to a computer for on-line calculation of RL from transpulmonary pressure, respiratory volume (obtained by digital integration) and flow. […] Immediately after the measurement of RL, thoracic gas volume (Vtg) is measured in a constant volume body plethysmograph to obtain specific lung resistance (SRL = RL . Vtg) in L x cm H20/LPS. […] To assess airway responsiveness, the cumulative carbachol dose in breath units (BU) that increases SRL 400% over the post-buffer value (i.e. PC400) is calculated from the dose response curve. […]

IL-13 = assay: In vivo ovalbumin (OVA) mouse model, BALF IL-13; design: species or system mice; settings: for IL-13 pg/ml (± SEM): 30 minutes before OVA challenge, BALF 24 hours, vehicle 120.2 ± 19.8
Method: This model is designed to determine the ability of a test article to modulate an antigen-induced pulmonary inflammatory cell accumulation in sensitized Balb/c mice from Charles River Laboratories. The mice are given a two week time period from arrival date prior to sensitizations.
On days 0, 7, 14, each animal is injected intraperitoneal (i.p.) with a 0.2 ml Ovalbumin Hydragel solution. Each animal receives 10 µg of Ovalbumin in 0.2 mL of Hydragel, aluminum hydroxide adsorptive gel containing 2% aluminum oxide. […] On day 22, BALF samples are collected from one group of animals and used for cytokine analysis. On day 24, BALF is obtained from a second group of animals and used for differential cell counts.
Test System: Female Babl/cJ mice (Jackson Laboratories), approximately 6-9 weeks old, each weighing approximately 20 to 25 grams, are divided into ten animals per group.
Sensitization Regimen: Mice are sensitized by an intraperitoneal injection of 10 µg ovalbumin (OVA) mixed in 4 mg aluminum hydroxide Al(OH)3 gel suspension in 0.2 ml sterile saline on Days 0, 7 and 14. This suspension is prepared one hour before intraperitoneal injection into each mouse. The animals are ready for OVA challenge on Day 21.
Antigen Challenge: Animals are exposed to aerosolized OVA on day 21 (5% w/v in sterile saline) for 20 minutes. The aerosol is generated by a PARI-Master nebulizer, the outlet of which is connected to a small Plexiglas® chamber containing the animals. Bronchoalveolar lavage is performed on Day 22.
Method of Study Performance: On day 24, 72 hours following aerosol OVA exposure, a separate group of animals are anesthetized with urethane (0.15 - 0.2 gm/kg) and the trachea is exposed and cannulated. […] Total cells and eosinophils are determined using a Technicon Hl and cytoslides, respectively. […]
Mice (12 animals per group) are sensitized with 0.2 ml of an AlOH3 hydrogel suspension (2% AlOH3) containing 50 µg/ml ovalbumin on days 0, 7 and 14. […] After the OVA challenge for 24 hours, the mice underwent bronchoalveolar lavage and IL-4 and IL-13 levels in the BALF are determined by ELISA. […]

[2] = 3 mg/kg aerosol 30 min before antigen challenge, 2 sheep per group, FIG. 3A

O=C(O)c1[nH]c2ccccc2c1Nc1ccncc1 [Example 28, 3-(4-Pyridinylamino)-1H-indole-2-carboxylic acid]
acute increase in specific lung resistance (SRL), early bronchial response [1, 2]: did not affect | late bronchial response (SRL) [1, 2]: blocked the late response | post challenge airway responsiveness (PC400 decrease after antigen challenge) ([1]; 3 mg/kg, 2 sheep, FIG. 3B): prevented this effect | IL-13 pg/ml (± SEM) (IL-13; 10 mg/kg intranasal): 59.9 ± 12.7 pg/mL | IL-13 pg/ml (± SEM) (IL-13; 30 mg/kg intranasal): 15.1 ± 7.1 pg/mL | ED50 (IL-13; Mus musculus, mice, intranasally, FIG. 1, read-out: ED50, allergen-induced IL-13 levels in the BALF): ~10 mg/kg

Source: patent publication EP1501797B1, “3-(SUBSTITUTED AMINO)-1H-INDOLE-2-CARBOXYLIC ACID ESTER AND 3-(SUBSTITUTED AMINO)-BENZO[B]THIOPHENE-2-CARBOXYLIC ACID ESTER DERIVATIVES AS INTERLEUKIN-4 GENE EXPRESSION INHIBITORS” (Aventis Pharmaceuticals Inc., priority 2002, dated 2003)
